This passage reports IC50 results from patent US8906930B2, “Quinazoline derivatives” (Merck Patent GmbH, priority 2009, dated 2014).

For this assay, the target named is T1, Recombinant human HSP90α (Homo sapiens, UniProt P07900).
T1 construct: host or cells: E. coli
Briefly: HSP90 radioligand filter binding test ([3H]17AAG competition). To be noted: radioligand [3H]17AAG 0.08 μM; HSP90 1.5 μg/assay; 22° C., 30 min; read-out: HSP90 inhibition IC50. The source says: The binding of geldanamycin or 17-allylamino-17-demethoxygeldanamycin (17AAG) to HSP90 and competitive inhibition thereof can be utilised in order to determine the inhibitory activity of the compounds according to the invention (Carreras et al. 2003, Chiosis et al. 2002).
In the specific case, a radioligand filter binding test is used. The radioligand used here is tritium-labelled 17-allylaminogeldanamycin, [3H]17AAG. This filter binding test allows a targeted search for inhibitors which interfere with the ATP binding site.
Recombinant human HSP90α (E. coli expressed, 95% purity);
[3H]17AAG (17-allylaminogeldanamycin, [allylamino-2,3-^3H. Specific activity: 1.11×10^12 Bq/mmol (Moravek, MT-1717);
HEPES filter buffer (50 mM HEPES, pH 7.0, 5 mM MgCl2, BSA 0.01%) Multiscreen FB (1 μm) filter plate (Millipore, MAFBNOB 50).
The 96-well microtitre filter plates are firstly irrigated and coated with 0.1% of polyethylenimine.
The test is carried out under the following conditions:
Reaction temperature 22° C.
Reaction time: 30 min., shaking at 800 rpm
50 mM HEPES HCl, pH 7.0, 5 mM MgCl2, 0.01% (w/v) of BSA
At the end of the reaction, the supernatant in the filter plate is removed by suction with the aid of a vacuum manifold (Multiscreen Separation System, Millipore), and the filter is washed twice.
The filter plates are then measured in a beta counter (Microbeta, Wallac) with scintillator (Microscint 20, Packard).
“% of control” is determined from the “counts per minutes” values, and the IC-50 value of a compound is calculated therefrom.

In the case of `CCNC(=O)Cc1ccc2nc(N)nc(C(=O)N3Cc4ccccc4C3)c2c1` [Compound A6, 2-[2-amino-4-(isoindoline-2-carbonyl)quinazolin-6-yl]-N-ethylacetamide], the IC50 (in general, the concentration that inhibits the measured activity by half) is 1000 to 10000 nM.
As for `CC(C)(C(=O)NCCC#N)c1ccc2nc(N)nc(C(=O)N3Cc4ccccc4C3)c2c1` [Compound A40, 2-[2-Amino-4-(isoindoline-2-carbonyl)quinazolin-6-yl]-N-(2-cyanoethyl)-2-methylpropanamide], the figure is 1000 to 10000 nM; as for `NC(=O)C1(c2ccc3nc(N)nc(C(=O)N4Cc5ccccc5C4)c3c2)CCC1` [Compound A5, 1-[2-amino-4-(isoindoline-2-carbonyl)quinazolin-6-yl]cyclobutane-carboxamide], 10 to 1000 nM.
Regarding `CC(C)(C)NC(=O)Cc1ccc2nc(N)nc(C(=O)N3Cc4ccccc4C3)c2c1` [Compound A7, 2-[2-amino-4-(isoindoline-2-carbonyl)quinazolin-6-yl]-N-tert-butylacetamide], the IC50 lay within 1000 to 10000 nM.
The figure for `CN1CCN(Cc2ccc3nc(N)nc(C(=O)N4Cc5ccccc5C4)c3c2)CC1` [Compound A76, [2-amino-6-[(4-methylpiperazin-1-yl)methyl]quinazolin-4-yl]-isoindolin-2-ylmethanone] is 1000 to 10000 nM; for `CN1CCN(C(=O)Cc2ccc3nc(N)nc(C(=O)N4Cc5ccccc5C4)c3c2)CC1` [Compound A17, 2-[2-Amino-4-(isoindoline-2-carbonyl)quinazolin-6-yl]-1-(4-methylpiperazin-1-yl)ethanone] it is 1000 to 10000 nM.
As for `CC(C)CNC(=O)C(C)(C)c1ccc2nc(N)nc(C(=O)N3Cc4ccccc4C3)c2c1` [Compound A37, 2-[2-Amino-4-(isoindoline-2-carbonyl)quinazolin-6-yl]-N-isobutyl-2-methylpropanamide], the figure is 10 to 1000 nM.
The figure for `Nc1nc(C(=O)N2Cc3ccccc3C2)c2cc(C3(C(=O)N4CCCC4)CC3)ccc2n1` [Compound A27, [2-Amino-6-[1-(pyrrolidine-1-carbonyl)cyclopropyl]quinazolin-4-yl]isoindolin-2-ylmethanone] is 1000 to 10000 nM; for `CCNC(=O)C1(c2ccc3nc(N)nc(C(=O)N4Cc5ccccc5C4)c3c2)CCOCC1` [Compound A54, 1-[2-Amino-4-(isoindoline-2-carbonyl)quinazolin-6-yl]-N-ethyltetrahydropyran-4-carboxamide] it is 1000 to 10000 nM; for `CCN(CC)C(=O)C1(c2ccc3nc(N)nc(C(=O)N4Cc5ccccc5C4)c3c2)CC1` [Compound A24, 1-[2-Amino-4-(isoindoline-2-carbonyl)quinazolin-6-yl]-N,N-diethylcyclopropanecarboxamide] it is 1000 to 10000 nM.
With `CCN(CCN(C)C)C(=O)C1(c2ccc3nc(N)nc(C(=O)N4Cc5ccccc5C4)c3c2)CC1` [Compound A28, 1-[2-Amino-4-(isoindoline-2-carbonyl)quinazolin-6-yl]-N-(2-dimethylaminoethyl)-N-ethylcyclopropanecarboxamide], the concentration for half-maximal inhibition (IC50) lay in the range of 1000 to 10000 nM.
The figure for `CC(C)(C(=O)NCC(N)=O)c1ccc2nc(N)nc(C(=O)N3Cc4ccccc4C3)c2c1` [Compound A39, 2-[2-Amino-4-(isoindoline-2-carbonyl)quinazolin-6-yl]-N-(2-amino-2-oxoethyl)-2-methylpropanamide] is 10 to 1000 nM.
The figure for `CCOC(=O)Cc1ccc2nc(N)nc(C(=O)N3Cc4ccccc4C3)c2c1` [Compound A1, Ethyl 2-[2-amino-4-(isoindoline-2-carbonyl)quinazolin-6-yl]acetate] is 10 to 1000 nM; for `CN(C)C(=O)C1(c2ccc3nc(N)nc(C(=O)N4Cc5ccccc5C4)c3c2)CC1` [Compound A22, 1-[2-Amino-4-(isoindoline-2-carbonyl)quinazolin-6-yl]-N,N-dimethylcyclopropanecarboxamide] it is 1000 to 10000 nM.
As for `CCCNC(=O)C(C)(C)c1ccc2nc(N)nc(C(=O)N3Cc4ccccc4C3)c2c1` [Compound A38, 2-[2-Amino-4-(isoindoline-2-carbonyl)quinazolin-6-yl]-N-propyl-2-methylpropanamide], the figure is 10 to 1000 nM; as for `CCNC(=O)C1(c2ccc3nc(N)nc(C(=O)N4Cc5ccccc5C4)c3c2)CCCC1` [Compound A53, 1-[2-Amino-4-(isoindoline-2-carbonyl)quinazolin-6-yl]-N-ethylcyclopentanecarboxamide], 10 to 1000 nM; as for `CC1CCC(C)N1C(=O)Cc1ccc2nc(N)nc(C(=O)N3Cc4ccccc4C3)c2c1` (stereo not shown) [Compound A15, 2-[2-Amino-4-(isoindoline-2-carbonyl)quinazolin-6-yl]-1-(2,5-dimethylpyrrolidin-1-yl)ethanone], 1000 to 10000 nM.
As to `CCNC(=O)C(CCC(F)F)c1ccc2nc(N)nc(C(=O)N3Cc4ccccc4C3)c2c1` (stereo not shown) [Compound A42, 2-[2-Amino-4-(isoindoline-2-carbonyl)quinazolin-6-yl]-N-ethyl-5,5-difluoropentanamide], the IC50 lay within 1000 to 10000 nM.
`CCNC(=O)C(C)(C)c1ccc2nc(N)nc(C(=O)N3Cc4ccccc4C3)c2c1` [Compound A36, 2-[2-Amino-4-(isoindoline-2-carbonyl)quinazolin-6-yl]-N-ethyl-2-methylpropanamide]: the IC50 was 10 to 1000 nM.
Take `CC(C)(C)NC(=O)C1(c2ccc3nc(N)nc(C(=O)N4Cc5ccccc5C4)c3c2)CCC1` [Compound A29, 1-[2-Amino-4-(isoindoline-2-carbonyl)quinazolin-6-yl]-N-tert-butylcyclobutanecarboxamide]: the IC50 was 10 to 1000 nM.
With `CCCCC(C(=O)NCC)c1ccc2nc(N)nc(C(=O)N3Cc4ccccc4C3)c2c1` (stereo not shown) [Compound A44, 2-[2-Amino-4-(isoindoline-2-carbonyl)quinazolin-6-yl]-N-ethylhexanamide], the IC50 lay in the range of 10 to 1000 nM.
The figure for `CC(C)(C)NC(=O)C1(c2ccc3nc(N)nc(C(=O)N4Cc5ccccc5C4)c3c2)CC1` [Compound A20, 1-[2-Amino-4-(isoindoline-2-carbonyl)quinazolin-6-yl]-N-tert-butylcyclopropanecarboxamide] is 10 to 1000 nM; for `CCN(CCO)C(=O)C1(c2ccc3nc(N)nc(C(=O)N4Cc5ccccc5C4)c3c2)CC1` [Compound A26, 1-[2-Amino-4-(isoindoline-2-carbonyl)quinazolin-6-yl]-N-(2-hydroxyethyl)-N-ethylcyclopropanecarboxamide] it is 1000 to 10000 nM.
The figure for `CCOC(=O)C1(c2ccc3nc(N)nc(C(=O)N4Cc5ccccc5C4)c3c2)CC1` [Compound A56, Ethyl 1-[2-amino-4-(isoindoline-2-carbonyl)quinazolin-6-yl]cyclopropanecarboxylate] is 10 to 1000 nM; for `CC1CCCN1C(=O)Cc1ccc2nc(N)nc(C(=O)N3Cc4ccccc4C3)c2c1` (stereo not shown) [Compound A14, 2-[2-Amino-4-(isoindoline-2-carbonyl)quinazolin-6-yl]-1-(2-methylpyrrolidin-1-yl)ethanone] it is 1000 to 10000 nM.
The figure for `NC(=O)Cc1ccc2nc(N)nc(C(=O)N3Cc4ccccc4C3)c2c1` [Compound A3, 2-[2-amino-4-(isoindoline-2-carbonyl)quinazolin-6-yl]acetamide] is 1000 to 10000 nM.
Regarding `CCCNC(=O)C1(c2ccc3nc(N)nc(C(=O)N4Cc5ccccc5C4)c3c2)CCC1` [Compound A32, 1-[2-Amino-4-(isoindoline-2-carbonyl)quinazolin-6-yl]-N-propylcyclobutanecarboxamide], the IC50 is 10 to 1000 nM.
As for `CC(C)CNC(=O)C1(c2ccc3nc(N)nc(C(=O)N4Cc5ccccc5C4)c3c2)CCC1` [Compound A34, 1-[2-Amino-4-(isoindoline-2-carbonyl)quinazolin-6-yl]-N-isobutylcyclobutanecarboxamide], the figure is 10 to 1000 nM.
On to `Nc1nc(C(=O)N2Cc3ccccc3C2)c2cc(C3(C(=O)O)CC3)ccc2n1` [Compound A57, 1-[2-Amino-4-(isoindoline-2-carbonyl)quinazolin-6-yl]cyclopropanecarboxylic acid], for which the IC50 was in the range of 10 to 1000 nM.
The figure for `CCNC(=O)C(c1ccc2nc(N)nc(C(=O)N3Cc4ccccc4C3)c2c1)C(C)C` (stereo not shown) [Compound A48, 2-[2-Amino-4-(isoindoline-2-carbonyl)quinazolin-6-yl]-N-ethyl-3-methyl-butanamide] is 10 to 1000 nM; for `CCN(CCO)C(=O)Cc1ccc2nc(N)nc(C(=O)N3Cc4ccccc4C3)c2c1` [Compound A12, 2-[2-Amino-4-(isoindoline-2-carbonyl)quinazolin-6-yl]-N-(2-hydroxyethyl)-N-ethylacetamide] it is 1000 to 10000 nM; for `Nc1nc(C(=O)N2Cc3ccccc3C2)c2cc(CC(=O)N3CCCC3)ccc2n1` [Compound A13, 2-[2-Amino-4-(isoindoline-2-carbonyl)quinazolin-6-yl]-1-pyrrolidin-1-ylethanone] it is 1000 to 10000 nM.
As for `CCNC(=O)C(CCC(C)C)c1ccc2nc(N)nc(C(=O)N3Cc4ccccc4C3)c2c1` (stereo not shown) [Compound A45, 2-[2-Amino-4-(isoindoline-2-carbonyl)quinazolin-6-yl]-N-ethyl-5-methyl-hexanamide], the figure is 10 to 1000 nM; as for `C=C(CC(C(=O)O)c1ccc2nc(N)nc(C(=O)N3Cc4ccccc4C3)c2c1)C(N)=O` (stereo not shown) [Compound A74], 1000 to 10000 nM.
